Laboratory results: patent US20160024051A1, “SALTS AND SOLID FORMS OF ISOQUINOLINONES AND COMPOSITION COMPRISING AND METHODS OF USING THE SAME” (INFINITY PHARMACEUTICALS, INC., priority 2013, published 2016)

Experiments:
[1] = PK evaluation in CD-1 mouse; assay type: in vivo
Protocol: (§1) For example, Compound 1 bis-hydrogen sulfate monohydrate was evaluated in CD-1 mouse, Wistar rat, Cyno monkey, and Beagle dog. Cross species allometric scaling of CL (drug clearance) and Vss (volume at steady state) predicts low CL, high Vss and long T112 for Compound 1 in humans.

[2] = PK evaluation in Cyno monkey; assay type: in vivo
Protocol: as §1

[3] = PK evaluation in Beagle dog; assay type: in vivo
Protocol: as §1

[4] = PK evaluation in Wistar rat; assay type: in vivo
Protocol: as §1

[5] = Storage at 40° C./75% RH (elevated humidity) for 1 week, re-analysis by XRPD/HPLC
Protocol: The crystalline solids were filtered, dried at ambient conditions, and stored at 40° C./75% RH for 1 week and analyzed by ^1H NMR/IC.
(§2) Samples from the screen using amorphous free base Compound 1 were analysed by ^1H-NMR and DSC, and re-analysis by XRPD was also carried out after drying at 50° C./vacuum and storage at 40° C./75% RH (the same sample was dried and stored at elevated humidity).

[6] = Thermodynamic aqueous solubility; assay type: physicochemical
[7] = Gravimetric vapour sorption (GVS); assay type: physicochemical
Protocol: Sorption isotherms were obtained using a Hiden IGASorp moisture sorption analyser, controlled by CFRSorp software. The sample temperature was maintained at 25° C. by a Huber re-circulating water bath. The humidity was controlled by mixing streams of dry and wet nitrogen, with a total flow rate of 250 ml/min. The relative humidity (RH) was measured by a calibrated Vaisala RH probe (dynamic range of 0-95% RH), located near the sample. The weight change, (mass relaxation) of the sample as a function of % RH was constantly monitored by the microbalance (accuracy ±0.001 mg). Typically 10-20 mg of sample was placed in a tared mesh stainless steel basket under ambient conditions. The sample was loaded and unloaded at 40% RH and 25° C. (typical room conditions). A moisture sorption isotherm was performed as outlined below (2 scans giving 1 complete cycle). The standard isotherm was performed at 25° C. at 10% RH intervals over a 0-90% RH range.
The software uses a least squares minimisation procedure together with a model of the mass relaxation, to predict an asymptotic value. The measured mass relaxation value must be within 5% of that predicted by the software, before the next % RH value is selected. The minimum equilibration time was set to 1 hour and the maximum to 4 hours. The sample was recovered after completion of the isotherm and re-analysed by XRPD.

[8] = Storage at 25° C./93% RH for 1 week, re-analysis by XRPD/HPLC; assay type: physicochemical; details: for stability on storage at 25° C./93% RH: 1 week
[9] = Polymorphism study: maturation (temperature cycling RT to 50° C.) in solvents, XRPD; assay type: physicochemical; details: three days
Protocol: One of 21 solvents was added to each vial in a number of aliquots (up to 30 volumes), with shaking. All the samples were then placed under maturation between RT to 50° C. (4 hours at each temperature) for 3 days. After maturation the samples were analysed by XRPD. Clear solutions were cooled to −20° C. (freezer). If no precipitation occurred samples were evaporated at RT.
Samples were placed under maturation between RT-50° C. (4 hours cycle) for 3 days. After maturation the samples were analyzed by XRPD. Clear solutions were then cooled to −20° C. (freezer). If no precipitation occurred, samples were evaporated at RT.
The corresponding solvents and solvent mixtures were added in portions of (a total of) 5, 10, 20, and 30 volumes at 50° C., with shaking, aiming for clear solutions. After each addition, the vials were allowed to shake for 20 minutes, after which observations were made. Solutions were allowed to evaporate, whereas slurries were set for 8 hour temperature cycling maturation, between RT and 50° C., for 5 days.
The oils obtained by solvent evaporation were used for the maturation screen. Anhydrous solvents (5 volumes; 100 μL) were used in order to minimise the amount of water present. Any solutions were allowed to slowly evaporate, whereas slurries were set for 8 hour temperature cycling maturation, between RT and 50° C. […] These were matured for a further 24 hours before performing XRPD analysis.
The selected solvents and solvent mixtures (5 to 20 volumes) were added with stirring. Any solutions were allowed to slowly evaporate, whereas slurries were set for 8 hour temperature cycling maturation, between RT and 50° C., for 2 days.
Crystals were ground in order to analyse them by XRPD. Suspensions were set for temperature cycling for a total of five days after which time XRPD analysis was carried out.

[10] = Stability of Hydrate Form 2: maturation in water or acetic acid: water 1:3 at constant temperature; assay type: physicochemical; details: 40 hours maturation
Protocol: Both solids obtained from maturation at 25° C.

[11] = Drying at 50° C./vacuum, re-analysis by XRPD; assay type: physicochemical
Protocol: as §2

## COc1cc(-c2cccc3cc([C@H](C)Nc4nc(N)ncc4C#N)n(-c4ccccc4)c(=O)c23)ccn1.O.O=S(=O)(O)O.O=S(=O)(O)O
[1]; IV, 5 mg/kg
  AUClast: 1012 ng·h/mL
  Cl: 82 mL/min/kg
  Cmax: 1417 ng/mL
  T1/2: 0.6 h
  Vss: 2.3 L/kg
[1]; PO, 10 mg/kg
  AUClast: 856 ng·h/mL
  Cmax: 647 ng/mL
  Foral: 45%
  T1/2: 1.7 h
  Tmax: 0.25 h
[2]; IV, 1 mg/kg
  AUClast: 2534 ng·h/mL
  Cl: 6.5 mL/min/kg
  Cmax: 581 ng/mL
  T1/2: 4.1 h
  Vss: 1.6 L/kg
[2]; PO, 5 mg/kg
  AUClast: 12790 ng·h/mL
  Cmax: 2365 ng/mL
  Foral: 100%
  T1/2: 4.0 h
  Tmax: 2 h
[3]; IV, 1 mg/kg
  AUClast: 4746 ng·h/mL
  Cl: 2.5 mL/min/kg
  Cmax: 424 ng/mL
  T1/2: 14.6 h
  Vss: 2.9 L/kg
[3]; PO, 5 mg/kg
  AUClast: 17626 ng·h/mL
  Cmax: 1830 ng/mL
  Foral: 74%
  T1/2: 8.0 h
  Tmax: 2.3 h
[4]; IV, 2 mg/kg
  AUClast: 2061 ng·h/mL
  Cl: 17 mL/min/kg
  Cmax: 799 ng/mL
  T1/2: 2.3 h
  Vss: 2.4 L/kg
[4]; PO, 10 mg/kg
  AUClast: 5968 ng·h/mL
  Cmax: 787 ng/mL
  Foral: 58%
  T1/2: 3.3 h
  Tmax: 1.3 h

## COc1cc(-c2cccc3cc([C@H](C)Nc4nc(N)ncc4C#N)n(-c4ccccc4)c(=O)c23)ccn1
[5]; salts scaled-up at 0.5 gram
  Storage 40° C./75% RH for 1 week: HPLC Purity: HPLC Purity: Unchanged
  Storage 40° C./75% RH for 1 week: XRPD (D8): XRPD (D8): Unchanged
[6]; residual solid
  XRPD (C2) post Aqueous solubility: Low cryst. 1,2-ethanedisulfonic
[6]; salts scaled-up at 0.5 gram, listed as 1-2-Ethanedisulfonic acid
  Thermodynamic aqueous solubility: 6200 µg/mL
[7]
  XRPD post GVS (C2): Unchanged
[7]; hygroscopicity in words, 25° C., listed as 1-2-Ethanedisulfonic acid
  GVS Single cycle: Moderately hygroscopic
[8]; salts scaled-up at 0.5 gram
  Storage 25° C./93% RH for 1 week: HPLC Purity: HPLC Purity: Unchanged
  Storage 25° C./93% RH for 1 week: XRPD (D8): XRPD (D8): Unchanged

## CC(=O)O.COc1cc(-c2cccc3cc([C@H](C)Nc4nc(N)ncc4C#N)n(-c4ccccc4)c(=O)c23)ccn1.COc1cc(-c2cccc3cc([C@H](C)Nc4nc(N)ncc4C#N)n(-c4ccccc4)c(=O)c23)ccn1 [Batch 2 of Form 6]
[5]; after 1 week, XRPD
  Stability at 40° C./75% RH: Very slight changes
[8]; after 1 week, XRPD
  Stability at 25° C./93% RH: Very slight changes

## COc1cc(-c2cccc3cc([C@H](C)Nc4nc(N)ncc4C#N)n(-c4ccccc4)c(=O)c23)ccn1 [Form 1 of the free base of Compound 1]
[5]; 1 week, form
  Stability at 40° C./75% RH: No changes in form after 1 week
[6]; at pH 6.85
  Thermodynamic aqueous solubility: 4 µg/mL
[7]
  GVS: moisture on loading: 0.7 % w/w
[7]; listed as Free base Form 1
  GVS behaviour (hydration / desolvation): hydrates to a higher hydrate above 80% RH
[7]; with hysteresis on desorption
  GVS: uptake between 80-90% RH: 4.0 % w/w
[8]
  stability on storage at 25° C./93% RH: converts to Form 3 of the free base of Compound 1
[8]; listed as Free base Form 1
  stability on storage at 25° C./93% RH: conversion to Form 3
[8]; form
  Stability at 25° C./93% RH: Conversion to Form 3 (FIG. 31)
[9]; listed as hydrate Form 1 of free base Compound 1
  XRPD form after maturation in acetic acid: water 1:1: Form 6

## COc1cc(-c2cccc3cc([C@H](C)Nc4nc(N)ncc4C#N)n(-c4ccccc4)c(=O)c23)ccn1.O [Form 2 of free base of Compound 1]
[10]; Acetic acid:water 1:3, 25° C.
  XRPD: Hydrate Form 2
[10]; Water, 25° C.
  XRPD: Hydrate Form 2
[10]; Water, 90° C.
  XRPD: Hydrate Form 2

## COc1cc(-c2cccc3cc([C@H](C)Nc4nc(N)ncc4C#N)n(-c4ccccc4)c(=O)c23)ccn1 [Form 4 of the free base of Compound 1]
[5]; screening sample from H2O, after drying
  XRPD after Storage at 40° C./75% RH: No changes
[11]; screening sample from H2O
  XRPD after drying at 50° C./vacuum: No changes
[7]; text statements, listed as Form 4
  GVS behaviour (hydration / desolvation): hydrates above 80% RH, but reversibly dehydrates back at 40% RH

## COc1cc(-c2cccc3cc([C@H](C)Nc4nc(N)ncc4C#N)n(-c4ccccc4)c(=O)c23)ccn1 [Form 5 of the free base of Compound 1]
[5]; screening sample from 2-MeTHF, after drying
  XRPD after Storage at 40° C./75% RH: No changes
[5]; screening sample from Acetone, after drying
  XRPD after Storage at 40° C./75% RH: No changes
[5]; screening sample from Acetonitrile, after drying
  XRPD after Storage at 40° C./75% RH: No changes; NMR
[5]; screening sample from DCM, after drying
  XRPD after Storage at 40° C./75% RH: No changes
[5]; screening sample from DCM:MeOH 1:1, after drying
  XRPD after Storage at 40° C./75% RH: No changes
[5]; screening sample from DME, after drying
  XRPD after Storage at 40° C./75% RH: No changes
[5]; screening sample from EtOAc, after drying
  XRPD after Storage at 40° C./75% RH: No changes
[5]; screening sample from EtOH, after drying
  XRPD after Storage at 40° C./75% RH: No changes
[5]; screening sample from EtOH/5% water, after drying
  XRPD after Storage at 40° C./75% RH: No changes
[5]; screening sample from IPA, after drying
  XRPD after Storage at 40° C./75% RH: No changes
[5]; screening sample from MIBK, after drying
  XRPD after Storage at 40° C./75% RH: No changes
[5]; screening sample from MeCN/5% water, after drying
  XRPD after Storage at 40° C./75% RH: No changes
[5]; screening sample from MeOH, after drying
  XRPD after Storage at 40° C./75% RH: No changes
[5]; screening sample from TBME, after drying
  XRPD after Storage at 40° C./75% RH: No changes
[5]; screening sample from THF, after drying
  XRPD after Storage at 40° C./75% RH: No changes; NMR
[5]; screening sample from THF/5% water, after drying
  XRPD after Storage at 40° C./75% RH: No changes
[11]; screening sample from 2-MeTHF
  XRPD after drying at 50° C./vacuum: No changes
[11]; screening sample from Acetone
  XRPD after drying at 50° C./vacuum: No changes
[11]; screening sample from Acetonitrile
  XRPD after drying at 50° C./vacuum: No changes
[11]; screening sample from DCM
  XRPD after drying at 50° C./vacuum: No changes
[11]; screening sample from DCM:MeOH 1:1
  XRPD after drying at 50° C./vacuum: No changes
[11]; screening sample from DME
  XRPD after drying at 50° C./vacuum: No changes
[11]; screening sample from EtOAc
  XRPD after drying at 50° C./vacuum: No changes
[11]; screening sample from EtOH
  XRPD after drying at 50° C./vacuum: No changes
[11]; screening sample from EtOH/5% water
  XRPD after drying at 50° C./vacuum: No changes
[11]; screening sample from IPA
  XRPD after drying at 50° C./vacuum: No changes
[11]; screening sample from MIBK
  XRPD after drying at 50° C./vacuum: No changes
[11]; screening sample from MeCN/5% water
  XRPD after drying at 50° C./vacuum: No changes
[11]; screening sample from MeOH
  XRPD after drying at 50° C./vacuum: No changes
[11]; screening sample from TBME
  XRPD after drying at 50° C./vacuum: No changes
[11]; screening sample from THF
  XRPD after drying at 50° C./vacuum: No changes
[11]; screening sample from THF/5% water
  XRPD after drying at 50° C./vacuum: No changes

## COc1cc(-c2cccc3cc([C@H](C)Nc4nc(N)ncc4C#N)n(-c4ccccc4)c(=O)c23)ccn1 [amorphous free base of Compound 1]
[5]; after 1 week, XRPD
  Stability at 40° C./75% RH: No changes after 1 week
[5]; elevated humidity conditions, not specified in the sentence
  solid form after storage at elevated humidity: No crystallisation
[8]; after 1 week, XRPD
  Stability at 25° C./93% RH: No changes after 1 week
[9]; listed as amorphous material
  XRPD form after maturation in acetic acid: water 1:1: Form 6
